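Test compounds were applied to cells in 96-well plates for 48 hours at 5 doses. Here, GI50 denotes the concentration required for 50% inhibition of growth.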 Activity calls are given as the source filed them. No stated cut-off is given here; in the data, active = GI50 up to about 1.1 µM and inactive = higher.

Some test systems named below: K562; NCI-H460; NCI/ADR-RES; RXF 393; KM12; SR; OVCAR-3; NCI-H23; HT-29; OVCAR-5; Malme-3M; SK-MEL-2; CCRF-CEM; HCT-15; PC-3; HOP-62; SN12C; LOX IMVI; ACHN; HCC 2998.
Holding throughout (test): NCI anticancer screen, dose series, 48 h

Take `COc1ccccc1NC(=O)CC(=O)NN`: the GI50 with K562 was > 100 µM (inactive); in the assay on NCI-H460, > 100 µM (inactive); in the assay with NCI/ADR-RES it was 9.77 µM (inactive); with RXF 393, > 100 µM (inactive); in the assay on KM12 it was > 100 µM (inactive); with SR, > 100 µM (inactive). Besides, the GI50 in the assay on OVCAR-3, in the assay with NCI-H23, with HT-29, in the assay on OVCAR-5, in the assay with Malme-3M and in the assay on SK-MEL-2 was > 100 µM (inactive) in each case. The GI50 was > 100 µM (inactive) in the assay on CCRF-CEM; over 100 µM in the assay with HCT-15; > 100 µM (inactive) in the assay with PC-3; > 100 µM (inactive) in the assay with HOP-62; > 100 µM (inactive) with SN12C; > 100 µM (inactive) in the assay with LOX IMVI. For the same molecule, the GI50 was > 100 µM (inactive) in the assay with ACHN and 11.9 µM (inactive) in the assay on HCC 2998.
For the molecule `Cc1nc2c(sc(=S)n2-c2ccccc2)c2nc3ncccc3n12`, the GI50 in the assay on K562 was > 100 µM (inactive); with NCI-H460, > 100 µM (inactive); with NCI/ADR-RES, > 100 µM (inactive); in the assay on RXF 393 it was 34.8 µM (inactive); in the assay with KM12, > 100 µM (inactive); with SR it was > 100 µM (inactive). For the same molecule, the GI50 is > 100 µM (inactive) with OVCAR-3; > 100 µM (inactive) in the assay with NCI-H23; > 100 µM (inactive) in the assay on HT-29; > 100 µM (inactive) with OVCAR-5; > 100 µM (inactive) with Malme-3M; 65.8 µM (inactive) in the assay with SK-MEL-2. Moreover, the GI50 in the assay on CCRF-CEM was > 100 µM (inactive); with HCT-15, over 100 µM; in the assay with PC-3, > 100 µM (inactive); in the assay with HOP-62, 25 µM (inactive); with SN12C it was 46.2 µM (inactive); with LOX IMVI, > 100 µM (inactive). Further, the GI50 with ACHN and in the assay on HCC 2998 was > 100 µM (inactive) each time.
Consider `CCN1CCN(c2nc3ccccc3c3c2CCOc2ccccc2-3)CC1`, for which the GI50 with K562 is 18.1 µM (inactive); in the assay with NCI-H460, 27.2 µM (inactive); with NCI/ADR-RES, > 46.3 µM (inactive); in the assay with RXF 393, 25.2 µM (inactive); with KM12, 24.9 µM (inactive); in the assay on SR, 2.85 µM (inactive). Also, the GI50 in the assay on OVCAR-3 is > 69 µM (inactive); in the assay with NCI-H23, > 62.5 µM (inactive); with HT-29, > 31 µM (inactive); in the assay on OVCAR-5, > 45.1 µM (inactive); in the assay with Malme-3M it was 17.2 µM (inactive); in the assay on SK-MEL-2, 27.4 µM (inactive). Also, the GI50 was 21.3 µM (inactive) with CCRF-CEM; 16.6 µM with HCT-15; 32.7 µM (inactive) with PC-3; 46.7 µM (inactive) in the assay on HOP-62; > 55.3 µM (inactive) in the assay on SN12C; 16.5 µM (inactive) with LOX IMVI. The values for the GI50 with ACHN and with HCC 2998 were > 61.2 µM (inactive) and 18.6 µM (inactive), respectively.
`O=C1C(SCCO)=C(SCCO)C(=O)c2ccccc21`: the GI50 with K562 is 1.67 µM (inactive); in the assay on NCI-H460 it was 1.77 µM (inactive); in the assay on NCI/ADR-RES it was 0.94 µM (active); in the assay with RXF 393, 1.33 µM (inactive); in the assay with KM12, 1.75 µM (inactive); with SR, 1.51 µM (inactive). Further, the GI50 in the assay with OVCAR-3 was 0.986 µM (active); in the assay with NCI-H23, 0.518 µM (active); in the assay with HT-29, 2.16 µM (inactive); in the assay with OVCAR-5, 1.16 µM (inactive); in the assay on Malme-3M, 1.1 µM (active); in the assay with SK-MEL-2, 2 µM (inactive). In addition, the GI50 with CCRF-CEM was 0.916 µM (active); in the assay with HCT-15, 1.39 µM; in the assay with PC-3, 2.1 µM (inactive); with HOP-62, 1.85 µM (inactive); in the assay on SN12C, 1.6 µM (inactive); in the assay with LOX IMVI, 0.222 µM (active). The results for the GI50 with ACHN and in the assay on HCC 2998 were 0.807 µM (active) and 1.74 µM (inactive), respectively.
